Measured values published in patent US20240208992A1, “MACROCYCLES AS CFTR MODULATORS” (Idorsia Pharmaceuticals Ltd, priority 2021, published 2024).

Target: human F508del-CFTR (Homo sapiens, UniProt P13569, DEL508-508)
Assay: F508del-CFTR cell surface expression (corrector activity), DiscoveRx ß-galactosidase complementation chemiluminescence assay in recombinant U2OS cell line;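 also: U2OS cells co-expressing ProLink-tagged F508del-CFTR and a membrane-anchored enzyme acceptor, where more surface CFTR restores β-galactosidase activity measured by chemiluminescence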
Conditions: U2OS cell line, 16h compound incubation; for EC50: EC50, F508del-CFTR cell surface expression, geomean values; for Emax: U2OS, in relation to the Emax of the corrector lumacaftor (=100%), arithmetic mean values

human F508del-CFTR, sequence (P13569 with tags, fused parts or gaps DEL508-508): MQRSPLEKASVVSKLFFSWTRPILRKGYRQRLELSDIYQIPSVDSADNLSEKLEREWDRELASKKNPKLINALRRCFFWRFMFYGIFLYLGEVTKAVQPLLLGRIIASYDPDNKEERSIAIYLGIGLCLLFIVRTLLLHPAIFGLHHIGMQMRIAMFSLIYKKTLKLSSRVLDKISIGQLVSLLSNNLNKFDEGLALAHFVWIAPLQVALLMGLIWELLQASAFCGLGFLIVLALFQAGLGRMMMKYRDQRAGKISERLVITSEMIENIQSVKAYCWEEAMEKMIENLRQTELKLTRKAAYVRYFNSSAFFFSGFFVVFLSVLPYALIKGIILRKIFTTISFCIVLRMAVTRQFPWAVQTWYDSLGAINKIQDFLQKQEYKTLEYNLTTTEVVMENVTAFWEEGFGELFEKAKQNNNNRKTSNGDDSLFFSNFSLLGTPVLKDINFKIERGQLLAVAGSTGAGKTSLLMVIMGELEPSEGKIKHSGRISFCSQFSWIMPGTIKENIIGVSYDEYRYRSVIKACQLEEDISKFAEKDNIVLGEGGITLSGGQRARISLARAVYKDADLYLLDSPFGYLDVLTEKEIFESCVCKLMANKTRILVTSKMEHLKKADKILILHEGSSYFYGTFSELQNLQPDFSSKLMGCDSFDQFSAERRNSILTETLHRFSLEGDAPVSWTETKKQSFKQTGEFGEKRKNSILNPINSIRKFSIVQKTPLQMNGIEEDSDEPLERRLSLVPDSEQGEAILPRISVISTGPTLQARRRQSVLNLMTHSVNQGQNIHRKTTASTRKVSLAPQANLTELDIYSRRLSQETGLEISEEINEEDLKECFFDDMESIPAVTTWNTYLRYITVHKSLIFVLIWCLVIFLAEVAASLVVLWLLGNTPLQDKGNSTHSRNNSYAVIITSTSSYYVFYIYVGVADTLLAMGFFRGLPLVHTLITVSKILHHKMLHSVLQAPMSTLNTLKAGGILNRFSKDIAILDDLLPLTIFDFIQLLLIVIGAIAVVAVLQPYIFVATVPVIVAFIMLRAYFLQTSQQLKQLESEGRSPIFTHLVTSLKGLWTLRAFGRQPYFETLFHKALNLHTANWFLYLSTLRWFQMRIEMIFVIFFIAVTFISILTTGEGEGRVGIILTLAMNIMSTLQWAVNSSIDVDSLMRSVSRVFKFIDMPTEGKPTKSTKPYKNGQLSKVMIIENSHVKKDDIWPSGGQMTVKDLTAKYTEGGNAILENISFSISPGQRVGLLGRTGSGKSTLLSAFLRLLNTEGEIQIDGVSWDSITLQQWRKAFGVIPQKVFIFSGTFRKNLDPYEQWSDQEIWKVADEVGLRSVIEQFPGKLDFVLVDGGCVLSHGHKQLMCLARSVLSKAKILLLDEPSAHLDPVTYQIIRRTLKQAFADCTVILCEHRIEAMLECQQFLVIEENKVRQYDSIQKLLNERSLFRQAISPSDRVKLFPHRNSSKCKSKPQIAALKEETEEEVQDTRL

EC50 [µM]	Emax [%]	SMILES
0.177	255	CC(C)C[C@H]1C(=O)N(C)C2(CC2)C(=O)N[C@H](Cc2ccccc2)COc2cnc3ccc(F)cc3c2C(=O)N[C@H](C(=O)NCCc2ccc(-n3nccn3)cc2)CC(=O)N1C [Example 135, (3′S,7′S,13′R)-N-(4-(2H-1,2,3-triazol-2-yl)phenethyl)-13′-benzyl-20′-fluoro-7′-isobutyl-6′,9′-dimethyl-1′,5′,8′,11′-tetraoxo-2′,3′,4′,5′,6′,7′,8′,9′,11′,12′,13′,14′-dodecahydro-1′H-spiro[cyclopropane-1,10′-[1]oxa[4,7,10,14]tetraazacycloheptadecino[17,16-c]quinoline]-3′-carboxamide]
0.27	271	CC(C)C[C@H]1C(=O)N(C)C2(CC2)C(=O)N[C@H](Cc2ccccc2)COc2cnc3ccc(F)cc3c2C(=O)N[C@H](C(=O)NCCc2cccc(-n3nccn3)c2)CC(=O)N1C [Example 136, (3′S,7′S,13′R)-N-(3-(2H-1,2,3-triazol-2-yl)phenethyl)-13′-benzyl-20′-fluoro-7′-isobutyl-6′,9′-dimethyl-1′,5′,8′,11′-tetraoxo-2′,3′,4′,5′,6′,7′,8′,9′,11′,12′,13′,14′-dodecahydro-1′H-spiro[cyclopropane-1,10′-[1]oxa[4,7,10,14]tetraazacycloheptadecino[17,16-c]quinoline]-3′-carboxamide]
0.254	311	CC(C)C[C@H]1C(=O)N(C)C2(CC2)C(=O)N[C@H](Cc2ccccc2)COc2cnc3ccc(F)cc3c2C(=O)N[C@H](C(=O)NCCc2ccc(-c3ncccn3)cc2)CC(=O)N1C [Example 137, (3′S,7′S,13′R)-13′-benzyl-20′-fluoro-7′-isobutyl-6′,9′-dimethyl-1′,5′,8′,11′-tetraoxo-N-(4-(pyrimidin-2-yl)phenethyl)-2′,3′,4′,5′,6′,7′,8′,9′,11′,12′,13′,14′-dodecahydro-1′H-spiro[cyclopropane-1,10′-[1]oxa[4,7,10,14]tetraazacycloheptadecino[17,16-c]quinoline]-3′-carboxamide]
0.538	292	CC(C)C[C@H]1C(=O)N(C)C2(CC2)C(=O)N[C@H](Cc2ccccc2)COc2cnc3ccc(F)cc3c2C(=O)N[C@H](C(=O)NCCc2cccc(-c3ncccn3)c2)CC(=O)N1C [Example 138, (3′S,7′S,13′R)-13′-benzyl-20′-fluoro-7′-isobutyl-6′,9′-dimethyl-1′,5′,8′,11′-tetraoxo-N-(3-(pyrimidin-2-yl)phenethyl)-2′,3′,4′,5′,6′,7′,8′,9′,11′,12′,13′,14′-dodecahydro-1′H-spiro[cyclopropane-1,10′-[1]oxa[4,7,10,14]tetraazacycloheptadecino[17,16-c]quinoline]-3′-carboxamide]
0.463	381	CC(C)C[C@H]1C(=O)N(C)C2(CC2)C(=O)N[C@H](Cc2ccccc2)COc2cnc3ccc(F)cc3c2C(=O)N[C@H](C(=O)NCCc2cnn(C3CC3)c2)CC(=O)N1C [Example 139, (3′S,7′S,13′R)-13′-benzyl-N-(2-(1-cyclopropyl-1H-pyrazol-4-yl)ethyl)-20′-fluoro-7′-isobutyl-6′,9′-dimethyl-1′,5′,8′,11′-tetraoxo-2′,3′,4′,5′,6′,7′,8′,9′,11′,12′,13′,14′-dodecahydro-1′H-spiro[cyclopropane-1,10′-[1]oxa[4,7,10,14]tetraazacycloheptadecino[17,16-c]quinoline]-3′-carboxamide]
0.142	318	CC(C)C[C@H]1C(=O)N(C)C2(CC2)C(=O)N[C@H](Cc2ccccc2)COc2cnc3ccc(F)cc3c2C(=O)N[C@H](C(=O)NCCc2nc(C3CC3)no2)CC(=O)N1C [Example 140, (3′S,7′S,13′R)-13′-benzyl-N-(2-(3-cyclopropyl-1,2,4-oxadiazol-5-yl)ethyl)-20′-fluoro-7′-isobutyl-6′,9′-dimethyl-1′,5′,8′,11′-tetraoxo-2′,3′,4′,5′,6′,7′,8′,9′,11′,12′,13′,14′-dodecahydro-1′H-spiro[cyclopropane-1,10′-[1]oxa[4,7,10,14]tetraazacycloheptadecino[17,16-c]quinoline]-3′-carboxamide]
